Measurements published in US7655396B1, “Methods for detecting receptor modulator activity” (Allergan, Inc., priority 2006, dated 2010).
Entries after “also recorded” stand apart in the source; their conditions may differ.

Target: T1, mouse alpha 2B receptor (m α2B) (Mus musculus, UniProt P30545)
T1 construct: expressed in transfected cells
T1 sequence (P30545 1-453): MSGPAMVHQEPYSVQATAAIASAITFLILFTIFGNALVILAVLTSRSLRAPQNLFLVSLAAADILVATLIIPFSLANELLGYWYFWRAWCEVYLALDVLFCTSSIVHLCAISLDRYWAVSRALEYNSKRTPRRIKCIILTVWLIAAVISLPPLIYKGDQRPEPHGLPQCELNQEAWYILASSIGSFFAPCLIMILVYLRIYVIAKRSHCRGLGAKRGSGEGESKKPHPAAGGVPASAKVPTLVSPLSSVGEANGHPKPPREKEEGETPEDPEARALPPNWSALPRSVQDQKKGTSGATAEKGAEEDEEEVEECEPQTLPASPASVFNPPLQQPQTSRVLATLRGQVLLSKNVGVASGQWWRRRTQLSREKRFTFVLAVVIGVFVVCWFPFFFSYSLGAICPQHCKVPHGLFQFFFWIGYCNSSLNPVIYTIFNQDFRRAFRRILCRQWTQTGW
Experiment: FLIPR calcium flux assay in HEK 293 m α2B/Gqi5 cells (Fluo-4 dye)
Format: cell-based
Settings: for activity (ratio of peak height divided by background fluorescence): FIGS. 3A-3C, room temperature, 1 to 10^4 nM, 384 well, FLIPR buffer without HEPES, commercial screening company
Description: This example describes the methodology used in assaying compounds for the ability to modulate the α2B receptor in a high throughput assay format in which the “readout” is the measurement of a change in intracellular calcium flux due to the use of the “promiscuous” Gqi5 hybrid G-protein, linking the α2B receptor (normally coupled to the adenylyl cyclase pathway) to the PLC pathway. Changes in intracellular calcium flux are monitored using a dye that becomes fluorescent when it binds free Ca^++ ion.
HEK 293 cells are stably co-transfected with two plasmids, the first encoding the mouse alpha 2B receptor (m α2B), and the second encoding the hybrid Gqi5 protein. […] The nucleotide sequence encoding the human Gqi5 protein is contained in the reference Aiyar et al., Human AT1 receptor is a single copy gene: characterization in a stable cell line. Mol. Cell. […] These references are hereby all incorporated by reference herein. […]
Each well of cells (in a 96 well microtiter dish) is assayed for activity in the FLIPR assay using the Fluo-4® calcium indicator dye to detect calcium flux. The structure of this dye, which can be purchased from Molecular Probes, Inc., is as follows:
The cells are loaded with this dye using the manufacturer's recommendations, and washed 3× with FLIPR Buffer. Assays are conducted at room temperature (unless otherwise indicated in the following examples). […] Only cells releasing Ca++ into the cytosol of the cells (thereby permitting Ca++ binding to the Fluo-4 dye) will have increased fluorescent emission at 520 nm.
Images of the illuminated cells are captured with a charge-coupled device (CCD) camera; CCD technology is adapted for producing high-resolution images in conditions of ultra low light. Images are collected at the rate of 60 images/minute (1 image per second) in each well. After 10 seconds, 50 μl of the test compound is pipetted into the well, and further images are collected at 1 second intervals for an additional 60 seconds, then at 15 second intervals for 4 minutes. Test compounds are prepared from 10^-2 M stocks in DMSO. Compounds are diluted in the FLIPR buffer to a final DMSO concentration of about 1%.
All images are stored on a computer hard drive for later retrieval and analysis.

[1] = FIG. 2, second experiment, 35° C., norepinephrine standard
[2] = FIG. 1, assay carried out at 35° C., 96 well

| EC50 (FIG. 2, second experiment, 35° C., 96 well) | EC50 (32° C., FIG. 4B) | relative efficacy (32° C., FIG. 4B) | EC50 (35° C., FIG. 4C) | relative efficacy (35° C., FIG. 4C) | EC50 (37° C., FIG. 4D) | relative efficacy (37° C., FIG. 4D) | EC50 [2] | relative efficacy compared to a norepinephrine standard [2] | EC50 (Room Temp., FIG. 4A) | relative efficacy (Room Temp., FIG. 4A) | Compound | relative efficacy [1] | activity (ratio of peak height divided by background fluorescence) |
| --- | --- | --- | --- | --- | --- | --- | --- | --- | --- | --- | --- | --- | --- |
| 129 nM | – | – | – | – | – | – | – | – | – | – | O=C1C2=C(CCCC2)CCC1CC1CN=CN1 (centres unmarked) [Compound 3] | 31% | – |
| – | – | – | – | – | – | – | – | – | – | – | COc1ccccc1N1CCN(CCN2C(=O)c3ccccc3C(C)(C)C2=O)CC1 [ARC 239, reference compound] | – | showed no ability to stimulate alpha 2B receptor activity |
| – | – | – | – | – | – | – | – | – | – | – | norepinephrine [reference compound] | 90% | showed an activity ratio above background; also recorded: shows activity above background |
| – | 337 nM | 32% | 318 nM | 31% | 65 nM | 30% | 242 nM | 35% | > 1000 nM | – | OCCNC(=S)NCc1cccc(Cl)c1F [Compound 2] | – | shows no activity; also recorded: very modest activity only at very high concentrations; also recorded: do not show activity to any significant degree |
| – | 302 nM | 30% | 321 nM | 40% | 67 nM | 40% | 238 nM | 40% | 305 nM | 12% | c1ncc(CC2CCC3=C(CCCC3)C2)[nH]1 (centres unmarked) [Compound 1] | – | do not show activity to any significant degree |
